These results are taken from EP1632557B1, “Novel alkaline cellulases” (Novozymes A/S, priority 1994, dated 1995).

Data set [1] deals with T1, EG I' from Fusarium oxysporum (Figure 4) (Fusarium oxysporum, UniProt P46237).
T1 sequence (P46237 19-429): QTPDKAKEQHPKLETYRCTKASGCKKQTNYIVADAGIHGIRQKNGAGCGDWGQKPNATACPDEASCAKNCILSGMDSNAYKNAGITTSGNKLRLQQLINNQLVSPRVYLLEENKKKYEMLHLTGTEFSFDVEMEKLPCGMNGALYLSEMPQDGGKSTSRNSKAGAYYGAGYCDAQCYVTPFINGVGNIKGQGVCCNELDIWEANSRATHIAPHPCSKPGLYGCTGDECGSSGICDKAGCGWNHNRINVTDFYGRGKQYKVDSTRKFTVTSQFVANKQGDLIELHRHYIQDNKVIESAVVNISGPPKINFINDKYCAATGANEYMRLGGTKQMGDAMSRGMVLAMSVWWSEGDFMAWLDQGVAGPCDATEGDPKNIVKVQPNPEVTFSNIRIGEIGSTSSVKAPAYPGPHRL
The experiment in a line: Cellulase activity on cellotriose (coupled glucose oxidase/peroxidase/ABTS assay). The settings on record: pH 8,5 and 40°C; calculated from a Lineweaver-Burk plot.

Substrate in data set [2]: OC[C@H]1O[C@@H](O[C@H]2[C@H](O)[C@@H](O)[C@H](O[C@H]3[C@H](O)[C@@H](O)C(O)O[C@@H]3CO)O[C@@H]2CO)[C@H](O)[C@@H](O)[C@@H]1O
Put plainly: purified protein, by the assay type. The settings on record: other: substrate cellotriose, pH 8,5 and 40°C, calculated from a Lineweaver-Burk plot, pH 8.5.

With `OC[C@H]1O[C@@H](O[C@H]2[C@H](O)[C@@H](O)[C@H](O[C@H]3[C@H](O)[C@@H](O)C(O)O[C@@H]3CO)O[C@@H]2CO)[C@H](O)[C@@H](O)[C@@H]1O` (some centres unmarked) [cellotriose], in data set [1], the “catalytic activity on cellotriose (Kcat)” value is recorded as 5,5 pr. sec.

B1: EG I' from Fusarium oxysporum (Figure 4) (Fusarium oxysporum) (protein)
chain: QTPDKAKEQHPKLETYRCTKASGCKKQTNYIVADAGIHGIRQKNGAGCGDWGQKPNATACPDEASCAKNCILSGMDSNAYKNAGITTSGNKLRLQQLINNQLVSPRVYLLEENKKKYEMLHLTGTEFSFDVEMEKLPCGMNGALYLSEMPQDGGKSTSRNSKAGAYYGAGYCDAQCYVTPFINGVGNIKGQGVCCNELDIWEANSRATHIAPHPCSKPGLYGCTGDECGSSGICDKAGCGWNHNRINVTDFYGRGKQYKVDSTRKFTVTSQFVANKQGDLIELHRHYIQDNKVIESAVVNISGPPKINFINDKYCAATGANEYMRLGGTKQMGDAMSRGMVLAMSVWWSEGDFMAWLDQGVAGPCDATEGDPKNIVKVQPNPEVTFSNIRIGEIGSTSSVKAPAYPGPHRL
Take B1: the Michaelis-Menten constant (Km) (as a rule, the concentration of substrate that gives half-maximal velocity) in data set [2] was 500 µM.
